Patent publication US20230248745A1, “SILVER ENHANCED CANNABINOID ANTIBIOTICS” (priority 2020, published 2023)
Entries after “also recorded” stand apart in the source; their conditions may differ. Read-outs that look alike come from different tables or passages of the source.

Experiments:
MRSA (USA300) = assay: Checkerboard assay, FICI of cannabinoid/silver combinations; assay type: cell-based, Methicillin-resistant Staphylococcus aureus
Description: (§1) Antibacterial growth was measured using a checkerboard analysis or qualitatively using agar plates with zones of inhibition. Viability was measured by the number of colony forming units (CFU) over time.
(§2) Using checkerboard analysis, the fractional inhibitory concentration index (FICI) was calculated for the 96-well plate test to illustrate synergy.
(§3) MRSA strain, USA300, was cultured in Luria-Bertani (LB) medium and inoculated at 37 C.
(§4) Cannabinoids or silver (expressed as the concentration of silver not the salt) were serially diluted 2-fold across the 96-well plate (Costar, catalog no. 3370) followed by addition of 100 μL of bacterial cultures with an OD600 of 0.0025. […] Wells turbidity were then analyzed using Varioskan™ microplate reader.
(§5) FICI was calculated in a checkerboard assay based on the turbidity of the wells. FIC of each agent was determined as the ratio of the minimal inhibitory concentration MIC of one agent in the presence of the other agent to the MIC of that agent alone. FICI was consequently computed as the sum of each agent's FIC.

E. coli strain K12 = assay: as above; assay type: cell-based, Escherichia coli; conditions: for FICI Silver Nanoparticles: Silver Nanoparticles in combination with the cannabinoid; for FICI Silver Sulfate: Silver Sulfate in combination with the cannabinoid
Description: as §1, §2
(§6) Escherichia coli (E. coli), strain K12, was cultured in Luria-Bertani (LB) medium and inoculated at 37 C.
as §4, §5

MRSA (strain USA300) [1] = assay: microbe, parasite or virus in culture; assay type: cell-based, Methicillin-resistant Staphylococcus aureus; conditions: Staphylococcus aureus; agent alone; silver expressed as silver; read-out: MIC
Source text: In therapeutic applications, synergy between active ingredients occurs when an observed combined therapeutic effect is greater than the sum of therapeutic effects of individual active ingredients, or a new therapeutic effect is produced that the active ingredients could not produce alone. […] In this context, the enhancement of therapeutic effect may take the form of increased efficacy or potency and/or decreased adverse effects. The synergistic effect may be mediated in whole or in part by the pharmacokinetics and/or pharmacodynamics of the active ingredients in a subject, so that the amount and proportion of the ingredients in the formulation may be synergistic in vivo. This in vivo synergy may be effected with a formulation that includes the active ingredients in amounts and proportions that are also synergistic in in vitro assays of efficacy. As used herein, the term “synergistically effective amounts” accordingly refers to amounts that are synergistic in vivo and/or in vitro. A numeric quantification of synergy is often expressed as a fractional inhibitory concentration index (FICI), which represents the sum of the fractional inhibitory concentrations (FICs) of each drug tested, where the FIC is determined for each drug by dividing the minimum inhibitory concentration (MIC, the lowest concentration of the drug which prevents visible growth of the bacterium in a standard in vitro assay—standard colorometric assay based on resazurin) of each drug when used in combination by the MIC of each drug when used alone. In very general terms, a FICI lower or higher than 1 indicates positively correlated activity (at least additive or potentiation) or an absence of positive interactions, respectively. […] (as described and used by Joung D K et al. and Rakoliya K et al.)
as §4

MRSA (strain USA300) [2] = assay: Kill-curve test (CFU over time); assay type: cell-based, Methicillin-resistant Staphylococcus aureus; conditions: for combined inhibitory effects compared to ½×MIC combinations: cannabinoid ¼×MIC + AgNPs
Description: as §1, §3
(§7) For each test tube, 1 mL of culture at OD600 of 0.005 was added to 1 mL of LB medium containing antibiotics to reach target sub-MIC concentrations of each compound. Samples of 100 μL was extracted from each tube at the determined time stamps followed by 10-fold serial dilutions. 10 μL of each dilution was then added on the LB agar plates that were subsequently incubated for 24 hours. Colonies were inspected and results quantified as log CFU/mL.

E. coli (strain K12) [3] = assay: Kill-curve test (CFU over time); assay type: cell-based, Escherichia coli; conditions: for growth inhibition: 1.25 mg/L and 0.625 mg/L (lower concentrations)
Description: as §1, §6, §7

MRSA (strain USA 300) = assay type: cell-based, Methicillin-resistant Staphylococcus aureus; conditions: for antibiotic effect of combination compared with silver nanoparticles alone: cannabinoid 2% + silver nanoparticles 2% silver w/w to PVA, films or coated catheter sections; for inhibition of bacterial growth (ring): single agent at 2% w/w to PVA, films and coated catheter sections, 24 hours
Description: PVA films were made by solvent casting using 33 μl drops of 2.5% PVA (88% hydrolyzed, 125 KDa molecular weight) mixed with CBC, CBG or CBGA (2% w/w to PVA). […] 3 mm sections of a urethral catheter (BARDEX® BARD®) were cut and coated with the same 33 μl volume of PVA/Silver/cannabinoid used to make films. Films and coated catheter sections were dried overnight in the dark. Five cavities were created in the LB agar plates containing MRSA (strain USA 300) at OD600 of 0.005. PVA films and catheters coated with PVA films were then placed in the cavities and moistened with 20 μL of deionized distilled water. Plates were incubated for 24 hours at 37° C.

MRSA = assay: Agar plate test of CBGA with silver nanoparticles; assay type: cell-based, Methicillin-resistant Staphylococcus aureus
Description: Four LB agar plates were prepared with MRSA culture at OD600 of 0.005. (FIG. 4) Each plate contained different concentrations of CBGA (no CBGA, ½ MIC, ¼ MIC, and ⅛ MIC). All plates were then divided into quadrants, each of which received 8 μL of AgNP at different concentrations from 20 mg/L serially diluted by 2-fold down to 2.5 mg/L in 0.2 mM sodium citrate.

E. coli (strain K12) [4] = conditions: agent alone
Source text: In therapeutic applications, synergy between active ingredients occurs when an observed combined therapeutic effect is greater than the sum of therapeutic effects of individual active ingredients, or a new therapeutic effect is produced that the active ingredients could not produce alone. […] In this context, the enhancement of therapeutic effect may take the form of increased efficacy or potency and/or decreased adverse effects. The synergistic effect may be mediated in whole or in part by the pharmacokinetics and/or pharmacodynamics of the active ingredients in a subject, so that the amount and proportion of the ingredients in the formulation may be synergistic in vivo. This in vivo synergy may be effected with a formulation that includes the active ingredients in amounts and proportions that are also synergistic in in vitro assays of efficacy. […] A numeric quantification of synergy is often expressed as a fractional inhibitory concentration index (FICI), which represents the sum of the fractional inhibitory concentrations (FICs) of each drug tested, where the FIC is determined for each drug by dividing the minimum inhibitory concentration (MIC, the lowest concentration of the drug which prevents visible growth of the bacterium in a standard in vitro assay—standard colorometric assay based on resazurin) of each drug when used in combination by the MIC of each drug when used alone. […]

[5] = Silver Nanoparticles in combination with the cannabinoid
[6] = Silver Nitrate in combination with the cannabinoid
[7] = cannabinoid with silver nanoparticles
[8] = cannabinoid with silver nitrate
[9] = cannabinoid with silver sulfate
[10] = cannabinoid ½×MIC + AgNP 1/160×MIC (0.25 mg/L)
[11] = cannabinoid ½×MIC + AgNP ⅛×MIC (5 mg/L)
[12] = cannabinoid ½×MIC + silver nitrate 1 mg/L
[13] = cannabinoid ½×MIC + silver nitrate 5 and 8 mg/L
[14] = 8 mg/L cannabinoid + 2.5, 1.25 and 0.625 mg/L AgSO4 (each)

SMILES | FICI (MRSA (USA300); [5]) | FICI (MRSA (USA300); [6]) | interaction (interpretation of FICI) (MRSA (USA300); [7]) | interaction (interpretation of FICI) (MRSA (USA300); [8]) | FICI Silver Nanoparticles (E. coli strain K12) | FICI Silver Sulfate (E. coli strain K12) | interaction (interpretation of FICI) (E. coli strain K12; [7]) | interaction (interpretation of FICI) (E. coli strain K12; [9]) | MIC (MRSA (strain USA300) [1]) | kill-curve effect (CFU) (MRSA (strain USA300) [2]) | time for which bactericidal effect persisted (MRSA (strain USA300) [2]) | MRSA growth by 24 hours (MRSA (strain USA300) [2]; cannabinoid alone at ½×MIC) | combined inhibitory effects compared to ½×MIC combinations (MRSA (strain USA300) [2]) | kill-curve effect (CFU) (MRSA (strain USA300) [2]; [10]) | kill-curve effect (CFU) (MRSA (strain USA300) [2]; [11]) | time through which bactericidal effect persisted (MRSA (strain USA300) [2]; [11]) | antibiotic effect of combination compared with silver nanoparticles alone (MRSA (strain USA 300)) | inhibition of bacterial growth (ring) (MRSA (strain USA 300)) | other results
CCCCCc1cc(O)c2c(c1)OC(C)(CCC=C(C)C)C=C2 (stereo not shown) [CBC, cannabichromene] | 0.141 | 0.375 | synergistic | strongly synergistic | 0.73 | 0.63 | potentiation | potentiation | 8 µg/mL | nearly identical full bactericidal effect | 24 h | full bacterial growth had occurred; also recorded: returned to levels approximating that of 0×MIC treatment | weaker and less durable | strong bactericidal effect | full bactericidal effect | 24 h | increased antibiotic effect | some level of inhibition | time of onset of bactericidal effect (MRSA (strain USA300) [2]): ≤ 2 h; duration of bacterial growth inhibition (MRSA (strain USA300) [2]; cannabinoid alone at ½×MIC): 6 h; duration of strong inhibition (MRSA (strain USA300) [2]; cannabinoid ¼×MIC + silver nitrate 1 mg/L): 6 h; kill-curve effect (CFU) (MRSA (strain USA300) [2]; cannabinoid ¼×MIC + silver nitrate 5 and 8 mg/L): Almost identical results; time of onset of bactericidal effect (MRSA (strain USA300) [2]; [11]): 2 h; effect at 24 hours (MRSA (strain USA300) [2]; [12]): strong inhibition of bacterial growth; kill-curve effect (CFU) (MRSA (strain USA300) [2]; [12]): complete bactericidal effect; time for which bactericidal effect remained (MRSA (strain USA300) [2]; [12]): 6 h; time of onset of bactericidal effect (MRSA (strain USA300) [2]; [12]): 2 h; kill-curve effect (CFU) (MRSA (strain USA300) [2]; [13]): fully bactericidal; time of onset of bactericidal effect (MRSA (strain USA300) [2]; [13]): 2 h; time through which bactericidal effect remained (MRSA (strain USA300) [2]; [13]): 24 h; time through which bacterial growth was inhibited (E. coli (strain K12) [3]): 24 h; time through which the effect persisted (E. coli (strain K12) [3]): 24 h; time to the reduction in E. coli CFU (E. coli (strain K12) [3]): ≤ 6 h; time through which E. coli growth was inhibited (E. coli (strain K12) [3]; [14]): 24 h; time to the reduction in E. coli CFU (E. coli (strain K12) [3]; [14]): ≤ 4 h; inhibitory effect on E. coli growth over 24 hours (E. coli (strain K12) [3]; cannabinoid alone, 8 mg/L): failed to achieve any inhibitory effect; inhibition of E. coli growth over 24 hours (E. coli (strain K12) [3]; cannabinoid alone, 16 mg/L): failed to achieve any inhibition; inhibition of E. coli growth (summary) (E. coli (strain K12) [3]; cannabinoid alone, concentrations up to 16 mg/L): fail to achieve any detectable inhibition
CCCCCc1cc(O)c(C/C=C(\C)CCC=C(C)C)c(O)c1C(=O)O [CBGA, cannabigerolic acid] | 0.375 | 0.53 | synergistic | partial synergy | 0.73 | 0.75 | potentiation | potentiation | 4 µg/mL | nearly identical full bactericidal effect | 24 h | returned to levels approximating that of 0×MIC treatment | weaker and less durable | strong bactericidal effect | full bactericidal effect | 24 h | increased antibiotic effect | some level of inhibition | inhibition of MRSA growth (MRSA; CBGA at ½ MIC in the agar): strong inhibition of MRSA growth in all wells; antibiotic effect (MRSA; CBGA at ½ MIC in the agar + 20 mg/L silver nanoparticles): strongest antibiotic effect; inhibition of bacterial growth (darkening in the photo) (MRSA; CBGA at ⅛ MIC or ¼ MIC in agar + AgNP 2.5-20 mg/L): concentration dependent darkening; antibiotic effect of combination compared with silver nitrate alone (MRSA (strain USA 300); cannabinoid 2% + silver nitrate 2% silver w/w to PVA): increased antibiotic effect
O=S(=O)([O-])[O-].[Ag+].[Ag+] [silver sulfate] |  |  |  |  |  |  |  |  |  |  |  |  |  |  |  |  |  |  | MIC (E. coli (strain K12) [4]): 2.5 µg/mL; growth inhibition (E. coli (strain K12) [3]; AgSO4 alone): very little inhibitory effects; growth inhibition (E. coli (strain K12) [3]; AgSO4 alone, listed as AgSO4): some initial growth inhibition; bactericidal effects (net reduction in bacterial CFU) (E. coli (strain K12) [3]; AgSO4 alone, 2.5 mg/L): no bactericidal effects; period of inhibition of E. coli growth (E. coli (strain K12) [3]; AgSO4 alone, 2.5 mg/L): 6 h; total increase in bacterial CFU at 24 hours (E. coli (strain K12) [3]; AgSO4 alone, 2.5 mg/L): approximately 1 log; inhibitory effect on E. coli growth (summary) (E. coli (strain K12) [3]; silver sulfate alone at 2.5 mg/L): weak inhibitory effect
